Experimental data taken from patent US5663331A, “Cephalosporin compounds” (Il-Dong Pharm. Co., Ltd., priority 1992, dated 1997).
Values after ≈ are worked out from the molar mass of the structure shown.

Tests used:
Type in all cases: cell-based
[1] = system: Streptococcus faecalis ATCC 10541; test: MIC, two-fold dilution method, Streptococcus faecalis ATCC 10541; conditions: 10^6 CFU per ml, 37° C., 18 to 20 hours; for Antibacterial Activity (MIC): Muller Hinton Broth; for MIC: Enterococcus faecalis, ATCC10541, Muller Hinton Broth, read-out: Antibacterial Activity (MIC)
Method: (§1) In order to illustrate the usefulness of the invented compounds, the minimal inhibitory concentrations-(MIC) thereof against standard strains were determined and compared with Cefotaxime, a known compound. Also, the in vitro antibacterial activity was determined by a two-fold dilution method as described below: That is, the two-fold serial dilutions of the compound were made and dispersed in Muller Hinton Broth medium. Standard test strain which had the 10^6 CFU per ml was inoculated on the medium, and was incubated at 37° C. for 18 to 20 hours.

[2] = system: Pseudomonas aeurginosa NCTC 10490; test: MIC, two-fold dilution method, Pseudomonas aeurginosa NCTC 10490; conditions: 10^6 CFU per ml, 37° C., 18 to 20 hours; for Antibacterial Activity (MIC): Muller Hinton Broth; for MIC: NCTC10490, Muller Hinton Broth, read-out: Antibacterial Activity (MIC)
Method: as §1

[3] = system: Staphylococcus epidermidis ATCC 12228; test: MIC, two-fold dilution method, Staphylococcus epidermidis ATCC 12228; conditions: 10^6 CFU per ml, 37° C., 18 to 20 hours; for Antibacterial Activity (MIC): Muller Hinton Broth; for MIC: ATCC12228, Muller Hinton Broth, read-out: Antibacterial Activity (MIC)
Method: as §1

[4] = system: Bacillus subtilis ATCC 6633; test: MIC, two-fold dilution method, Bacillus subtilis ATCC 6633; conditions: 10^6 CFU per ml, 37° C., 18 to 20 hours; for Antibacterial Activity (MIC): Muller Hinton Broth; for MIC: ATCC6633, Muller Hinton Broth, read-out: Antibacterial Activity (MIC)
Method: as §1

[5] = system: Staphylococcus aureus ATCC 65389; test: MIC, two-fold dilution method, Staphylococcus aureus ATCC 65389; conditions: 10^6 CFU per ml, 37° C., 18 to 20 hours; for Antibacterial Activity (MIC): Muller Hinton Broth; for MIC: ATCC65389, Muller Hinton Broth, read-out: Antibacterial Activity (MIC)
Method: as §1

[6] = system: Klebsiella pneumoniae ATCC 10031; test: MIC, two-fold dilution method, Klebsiella pneumoniae ATCC 10031; conditions: 10^6 CFU per ml, 37° C., 18 to 20 hours; for Antibacterial Activity (MIC): Muller Hinton Broth; for MIC: ATCC10031, Muller Hinton Broth, read-out: Antibacterial Activity (MIC)
Method: as §1

[7] = system: Esherichia coli ATCC 25922; test: MIC, two-fold dilution method, Esherichia coli ATCC 25922; conditions: Muller Hinton Broth, 10^6 CFU per ml, 37° C., 18 to 20 hours; for MIC: read-out: Antibacterial Activity (MIC)
Method: as §1

| SMILES | Antibacterial Activity (MIC) [1] | Antibacterial Activity (MIC) [2] | Antibacterial Activity (MIC) [3] | Antibacterial Activity (MIC) [4] | Antibacterial Activity (MIC) [5] | Antibacterial Activity (MIC) [6] | Antibacterial Activity (MIC) [7] | MIC [1] | MIC [2] | MIC [3] | MIC [4] | MIC [5] | MIC [6] | MIC [7] |
| --- | --- | --- | --- | --- | --- | --- | --- | --- | --- | --- | --- | --- | --- | --- |
| C=CC[n+]1ccc(SCC2=C(C(=O)[O-])N3C(=O)C(NC(=O)/C(=N\OC(C)(C)C(=O)O)c4csc(N)n4)[C@H]3SC2)c2cc(F)c(N3CCNCC3C)cc21 (stereo partly drawn) [Compound I-64, 7-[(Z)-2-(2-aminothiazol-4-yl)-2-(2-carboxyprop-2-oxyimino)acetamido]-3-[1-allyl-6-fluoro-7-(2-methylpiperazinyl)quinolinium-4-yl]thiomethyl-3-cephem-4-carboxylate] | 0.39 mg/L | 3.13 mg/L | 1.56 mg/L | 1.56 mg/L | 3.13 mg/L | 1.56 mg/L | 1.56 mg/L | – | – | – | – | – | – | – |
| CO/N=C(\C(=O)N[C@@H]1C(=O)N2C(C(=O)O)=C(COC(C)=O)CS[C@H]12)c1csc(N)n1 [CTX, Cefotaxime, reference compound] | – | – | – | – | – | – | – | 0.39 mg/L (≈ 0.856 µM) | 1.56 mg/L (≈ 3.43 µM) | 0.78 mg/L (≈ 1.71 µM) | 0.2 mg/L (≈ 0.439 µM) | 0.78 mg/L (≈ 1.71 µM) | 0.39 mg/L (≈ 0.856 µM) | 0.78 mg/L (≈ 1.71 µM) |
| C#CCO/N=C(\C(=O)NC1C(=O)N2C(C(=O)[O-])=C(CSc3cc[n+](CC=C)c4cc(N5CCN(C)CC5)c(F)cc34)CSC12)c1csc(N)n1 (stereo not drawn) [Compound I-50, 7-[(Z)-2-(2-aminothiazol-4-yl)-2-(propargyloxyimino)acetamido]-3-[1-allyl-6-fluoro-7-(N-methylpiperazinyl)quinolinium-4-yl]thiomethyl-3-cephem-4-carboxylate] | – | – | – | – | – | – | – | 1.56 mg/L (≈ 2.12 µM) | 3.13 mg/L (≈ 4.25 µM) | 3.13 mg/L (≈ 4.25 µM) | 0.78 mg/L (≈ 1.06 µM) | 3.13 mg/L (≈ 4.25 µM) | 3.13 mg/L (≈ 4.25 µM) | 3.13 mg/L (≈ 4.25 µM) |
| CO/N=C(\C(=O)NC1C(=O)N2C(C(=O)[O-])=C(CSc3cc[n+](C4CC4)c4cc(N5CCN(C)CC5)c(F)cc34)CSC12)c1csc(N)n1 (stereo not drawn) [Compound I-6, 7-[(Z)-2-(2-aminothiazol-4-yl)-2-(methoxyimino)acetamido]-3-[1-cyclopropyl-6-fluoro-7-(N-methylpiperazinyl)quinolinium-4-yl]thiomethyl-3-cephem-4-carboxylate] | – | – | – | – | – | – | – | 0.2 mg/L (≈ 0.281 µM) | 1.56 mg/L (≈ 2.19 µM) | 0.39 mg/L (≈ 0.547 µM) | 0.39 mg/L (≈ 0.547 µM) | 0.39 mg/L (≈ 0.547 µM) | 0.1 mg/L (≈ 0.14 µM) | 12.5 mg/L (≈ 17.5 µM) |
| C=CC[n+]1ccc(SCC2=C(C(=O)[O-])N3C(=O)C(NC(=O)/C(=N\OC)c4csc(N)n4)C3SC2)c2cc(F)c(N3CCN(CC)CC3)cc21 (stereo not drawn) [Compound I-15, 7-[(Z)-2(2-aminothiazol-4-yl)-2-(methoxyimino)acetamido]-3-[1-allyl-6-fluoro-7-(1-ethylpiperazinyl)quinolinium-4-yl]thiomethyl-3-cephem-4-carboxylate] | – | – | – | – | – | – | – | 0.39 mg/L (≈ 0.537 µM) | 1.56 mg/L (≈ 2.15 µM) | 0.78 mg/L (≈ 1.07 µM) | 0.1 mg/L (≈ 0.138 µM) | 0.2 mg/L (≈ 0.275 µM) | 0.39 mg/L (≈ 0.537 µM) | 1.56 mg/L (≈ 2.15 µM) |
| CCN1CCN(c2cc3c(cc2F)c(SCC2=C(C(=O)[O-])N4C(=O)C(NC(=O)/C(=N\OC)c5csc(N)n5)C4SC2)cc[n+]3C2CC2)CC1 (stereo not drawn) [Compound I-7, 7-[(Z)-2-(2-aminothiazol-4-yl)-2-(methoxyimino)acetamido]-3-3-[1-cyclopropyl-6-fluoro-7-(1-ethylpiperazinyl)quinolinium-4-yl]-thiomethyl-3-cephem-4-carboxylate] | – | – | – | – | – | – | – | 0.05 mg/L (≈ 0.0688 µM) | 0.39 mg/L (≈ 0.537 µM) | 0.2 mg/L (≈ 0.275 µM) | 0.2 mg/L (≈ 0.275 µM) | 0.39 mg/L (≈ 0.537 µM) | 0.05 mg/L (≈ 0.0688 µM) | 0.78 mg/L (≈ 1.07 µM) |
| CC(C)(O/N=C(\C(=O)NC1C(=O)N2C(C(=O)[O-])=C(CSc3cc[n+](C4CC4)c4cc(N5CCNCC5)c(F)cc34)CS[C@H]12)c1csc(N)n1)C(=O)O (stereo partly drawn) [Compound I-57, 7-[(Z)-2-(2-aminothiazol-4-yl)-2-(2-carboxyprop-2-oxyimino)acetamido]-3-(1-cyclopropyl-6-fluoro-7-piperazinylquinolinium-4-yl)thiomethyl-3-cephem-4-carboxylate] | – | – | – | – | – | – | – | 1.56 mg/L (≈ 2.02 µM) | 0.78 mg/L (≈ 1.01 µM) | 6.25 mg/L (≈ 8.11 µM) | 0.78 mg/L (≈ 1.01 µM) | 6.25 mg/L (≈ 8.11 µM) | 0.39 mg/L (≈ 0.506 µM) | 0.78 mg/L (≈ 1.01 µM) |
| CC1CNCCN1c1cc2c(cc1F)c(SCC1=C(C(=O)[O-])N3C(=O)C(NC(=O)/C(=N\OC(C)(C)C(=O)O)c4csc(N)n4)[C@H]3SC1)cc[n+]2C (stereo partly drawn) [Compound I-56, 7-[(Z)-2-(2-aminothiazol-4-yl)-2-(2-carboxyprop-2-oxyimino)acetamido]-3-[1-methyl-6-fluoro-7-(2-methylpiperazinyl)quinolinium-4-yl]thiomethyl-3-cephem-4-carboxylate] | 0.39 mg/L | 0.78 mg/L | 0.78 mg/L | 0.2 mg/L | 0.78 mg/L | 0.39 mg/L | 0.39 mg/L | – | – | – | – | – | – | – |
| C=CCO/N=C(\C(=O)NC1C(=O)N2C(C(=O)[O-])=C(CSc3cc[n+](CC)c4cc(N5CCN(C)CC5)c(F)cc34)CSC12)c1csc(N)n1 (stereo not drawn) [Compound I-30, 7-[(Z)-2-(2-aminothiazol-4-yl)-2-(allyloxyimino)acetamido]-3-[1-ethyl-6-fluoro-7-(N-methylpiperazinyl)quinolinium-4-yl]thiomethyl-3-cephem-4-carboxylate] | – | – | – | – | – | – | – | 0.39 mg/L (≈ 0.537 µM) | 6.25 mg/L (≈ 8.6 µM) | 0.78 mg/L (≈ 1.07 µM) | 0.39 mg/L (≈ 0.537 µM) | 1.56 mg/L (≈ 2.15 µM) | 0.78 mg/L (≈ 1.07 µM) | 3.13 mg/L (≈ 4.31 µM) |
| C=CCO/N=C(\C(=O)NC1C(=O)N2C(C(=O)[O-])=C(CSc3cc[n+](C4CC4)c4cc(N5CCN(C)CC5)c(F)cc34)CSC12)c1csc(N)n1 (stereo not drawn) [Compound I-26, 7-[(Z)-2-(2-aminothiazol-4-yl)-2-(allyloxyimino)acetamido]-3-[1-cyclopropyl-6-fluoro-7-(N-methylpiperazinyl)quinolinium-4-yl]thiomethyl-3-cephem-4-carboxylate] | – | – | – | – | – | – | – | 0.2 mg/L (≈ 0.271 µM) | 0.39 mg/L (≈ 0.528 µM) | 1.56 mg/L (≈ 2.11 µM) | 0.1 mg/L (≈ 0.135 µM) | 0.39 mg/L (≈ 0.528 µM) | 0.2 mg/L (≈ 0.271 µM) | 6.25 mg/L (≈ 8.46 µM) |
| C=CCO/N=C(\C(=O)NC1C(=O)N2C(C(=O)[O-])=C(CSc3cc[n+](CC)c4cc(N5CCN(CC)CC5)c(F)cc34)CSC12)c1csc(N)n1 (stereo not drawn) [Compound I-31] | – | – | – | – | – | – | – | 0.39 mg/L (≈ 0.526 µM) | 0.78 mg/L (≈ 1.05 µM) | 0.78 mg/L (≈ 1.05 µM) | 0.2 mg/L (≈ 0.27 µM) | 0.39 mg/L (≈ 0.526 µM) | 0.39 mg/L (≈ 0.526 µM) | 0.78 mg/L (≈ 1.05 µM) |
| C=CCO/N=C(\C(=O)NC1C(=O)N2C(C(=O)[O-])=C(CSc3cc[n+](CC=C)c4cc(N5CCNCC5C)c(F)cc34)CS[C@H]12)c1csc(N)n1 (stereo partly drawn) [Compound I-36, 7-[(Z)-2-(2-aminothiazol-4-yl)-2-(allyloxyimino)acetamido]-3-[1-allyl-6-fluoro-7-(2-methylpiperazinyl)quinolinium-4-yl]thiomethyl-3-cephem4-carboxylate] | 0.39 mg/L | 1.56 mg/L | 1.56 mg/L | 0.39 mg/L | 0.78 mg/L | 0.78 mg/L | 1.56 mg/L | – | – | – | – | – | – | – |
| C#CCO/N=C(\C(=O)NC1C(=O)N2C(C(=O)[O-])=C(CSc3cc[n+](CC)c4cc(N5CCNCC5)c(F)cc34)CS[C@H]12)c1csc(N)n1 (stereo partly drawn) [Compound I-45, 7-[(Z)-2-(2-aminothiazol-4-yl)-2-(propargyloxyimino)acetamido]-3-(1-ethyl-6-fluoro-7-piperazinylquinolinium-4-yl)thiomethyl-3-cephem-4-carboxylate] | – | – | – | – | – | – | – | 0.39 mg/L (≈ 0.549 µM) | 1.56 mg/L (≈ 2.19 µM) | 0.78 mg/L (≈ 1.1 µM) | 0.1 mg/L (≈ 0.141 µM) | 0.2 mg/L (≈ 0.281 µM) | 0.78 mg/L (≈ 1.1 µM) | 3.13 mg/L (≈ 4.4 µM) |
| CCN1CCN(c2cc3c(cc2F)c(SCC2=C(C(=O)[O-])N4C(=O)C(NC(=O)/C(=N\OC(C)(C)C(=O)O)c5csc(N)n5)C4SC2)cc[n+]3CC)CC1 (stereo not drawn) [Compound I-61, 7-[(Z)-2-(2-aminothiazol-4-yl)-2-(2-carboxyprop-2-oxyimino)acetamido]-3-[1-ethyl-6-fluoro-7-(1-ethylpiperazinyl)quinolinium-4-yl]thiomethyl-3-cephem-4-carboxylate] | – | – | – | – | – | – | – | 0.39 mg/L (≈ 0.496 µM) | 1.56 mg/L (≈ 1.98 µM) | 1.56 mg/L (≈ 1.98 µM) | 3.13 mg/L (≈ 3.98 µM) | 1.56 mg/L (≈ 1.98 µM) | 3.13 mg/L (≈ 3.98 µM) | 3.13 mg/L (≈ 3.98 µM) |
| CCN1CCN(c2cc3c(cc2F)c(SCC2=C(C(=O)[O-])N4C(=O)C(NC(=O)/C(=N\OC)c5csc(N)n5)C4SC2)cc[n+]3CC)CC1 (stereo not drawn) [Compound I-11, 7-[(Z)-2-(2-aminothiazol-4-yl)-2-(methoxyimino)acetamido]-3-[1-ethyl-6-fluoro-7-(1-ethylpiperazinyl)quinolinium-4-yl]thiomethyl-3-cephem-4-carboxylat] | – | – | – | – | – | – | – | 0.05 mg/L (≈ 0.0699 µM) | 1.56 mg/L (≈ 2.18 µM) | 0.2 mg/L (≈ 0.28 µM) | 0.1 mg/L (≈ 0.14 µM) | 0.1 mg/L (≈ 0.14 µM) | 0.39 mg/L (≈ 0.546 µM) | 1.56 mg/L (≈ 2.18 µM) |
